Here are results for 5 compounds from patent US5278326A, “Substituted beta-ketoamide ACAT inhibitors” (Warner-Lambert Company, priority 1991, dated 1994).

pIC50: −log10 of the molar value.

For this assay, the target named is T1, acyl-CoA: cholesterol acyltransferase (ACAT) (Oryctolagus cuniculus, UniProt G1SFD9).
T1 construct: in a tissue preparation containing rabbit intestinal microsomes; from tissue; host or cells: rabbit intestinal microsomes
T1 sequence (G1SFD9 1-524): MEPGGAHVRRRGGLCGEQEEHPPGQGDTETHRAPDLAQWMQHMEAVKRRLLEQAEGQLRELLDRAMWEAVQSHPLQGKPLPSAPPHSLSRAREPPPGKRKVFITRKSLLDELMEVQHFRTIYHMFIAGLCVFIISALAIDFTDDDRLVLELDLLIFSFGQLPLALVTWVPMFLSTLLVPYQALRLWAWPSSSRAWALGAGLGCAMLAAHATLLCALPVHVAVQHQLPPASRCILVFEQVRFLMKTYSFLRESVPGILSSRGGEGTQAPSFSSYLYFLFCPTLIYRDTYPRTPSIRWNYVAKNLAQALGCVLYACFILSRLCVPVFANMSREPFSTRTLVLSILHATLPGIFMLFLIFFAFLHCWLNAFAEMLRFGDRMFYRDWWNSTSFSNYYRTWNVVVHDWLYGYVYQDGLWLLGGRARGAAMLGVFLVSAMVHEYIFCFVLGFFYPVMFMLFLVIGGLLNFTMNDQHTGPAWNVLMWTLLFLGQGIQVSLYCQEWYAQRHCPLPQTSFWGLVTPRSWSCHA
The assay can be described thus: in vitro inhibition of ACAT (radiolabeled cholesterol oleate formed from radiolabeled oleic acid, rabbit intestinal microsomes). The settings on record: tissue preparation containing rabbit intestinal microsomes, read-out: IC50 (concentration of test compound required to inhibit the activity of the enzyme by 50%). It counts as biochemical. As to the method:
The ability of representative compounds of the present invention to inhibit ACAT was measured using an in vitro test more fully described in F. J. Field and R. G. Salone, Biochemica et Biophysica 712:557-570 (1982). The test assesses the ability of a test compound to inhibit the acylation of cholesterol by oleic acid by measuring the amount of radiolabeled cholesterol oleate formed from radiolabeled oleic acid in a tissue preparation containing rabbit intestinal microsomes.
The data appear in Table 1 where they are expressed as IC50 values; i.e., the concentration of test compound required to inhibit the activity of the enzyme by 50%.
Consider `CC(C)c1cccc(C(C)C)c1NC(=O)CC(=O)CCCCCCCCCCCO` [Example 7, N-[2,6-bis(1-methylethyl)phenyl]-14-hydroxy-3-oxo-tetradecanamide], for which the pIC50 is 6.64.

`CCCCCCCCCCCC(=O)C(C)(C)C(=O)N(C)c1c(OC)cc(OC)cc1OC` [Example 10, N,2,2-trimethyl-3-oxo-N-(2,4,6-trimethoxyphenyl)-tetradecanamide]: the pIC50 is below 6.00.

As to `CCCCCCCCNC(=O)CC(=O)c1c2ccccc2cc2ccccc12` [Example 13, N-octyl-β-oxo-9-anthracenepropanamide], the pIC50 was below 6.00.

With `CCCCCCCCNC(=O)CC(=O)c1ccc(F)cc1F` [Example 12, 2,4-difluoro-N-octyl-β-oxo-benzenepropanamide], the pIC50 is below 6.00.

As to `CC(C)c1cccc(C(C)C)c1NC(=O)CC(=O)CCCCCCCCCCCOC1CCCCO1` (centres unmarked) [Example 6, N-[2,6-bis(1-methylethyl)phenyl]-3-oxo-14-[(tetrahydro-2H-pyran-2-yl)oxy]-tetradecanamide], the pIC50 was 7.24.
